Measurements as given in ChEMBL document CHEMBL2029257, “Copper-Free Click for PET: Rapid 1,3-Dipolar Cycloadditions with a Fluorine-18 Cyclooctyne” (ACS Med Chem Lett, 2011).

What was measured:
Type in all cases: ADME, cell-free
[1] = Metabolic stability in Sprague-Dawley rat serum assessed as compound remaining at 2 MBq at 1 hr by RP-HPLC analysis; conditions: read-out: Stability
Serum = experiment: (§1) Metabolic stability in Sprague-Dawley rat serum assessed as compound remaining at 2 MBq at 2 hrs by RP-HPLC analysis; conditions: 2 h
[2] = as §1; conditions: Sprague-Dawley, read-out: Stability

remaining at 1 h, 2 MBq [1] | Stability (Serum) | remaining at 2 h, 2 MBq [2] | SMILES
> 98% | Stable |  | O=C(NCCCCCC(=O)N1Cc2ccccc2C#Cc2ccccc21)c1ccc([18F])cc1
> 98% |  | 96.8% | O=C(O)COCC(=O)NCCOCCOCCOCCOCCOCCOCCOCCOCCn1nnc2c1-c1ccccc1CN(C(=O)CCCCCNC(=O)c1ccc([18F])cc1)c1ccccc1-2
